The numbers were not newly measured in publication PMC10011554, “BET inhibitor trotabresib in heavily pretreated patients with solid tumors and diffuse large B-cell lymphomas” (Nature Communications, 2023), which cites them from elsewhere.

Where two headings read alike, the source gives them in different places.

For data set [1], the system named is GLI1 gene expression in MIA-PaCa-2 pancreatic adenocarcinoma cells. Set-up: method as in Investigator's Brochure. The following applies: MIA-PaCa-2 cells, ref Investigator's Brochure; read-out: IC50, inhibition of GLI1 gene expression; cited from earlier work.
For another data set, the system named is CYP2C8. Set-up: method as in Investigator's Brochure. The following applies: CYP2C8, ref Investigator's Brochure; read-out: IC50, direct inhibition; cited from earlier work.
The subject of data set [2] is CYP1A2, CYP2A6, CYP2B6, CYP2C8, CYP2C9, CYP2C19, CYP2D6, CYP2E1, and CYP3A4/5. The arrangement: method as in Investigator's Brochure. The following applies: all nine isozymes tested, ref Investigator's Brochure; cited from earlier work.
The next data set concerns BCRP or MRP2. The arrangement: method as in Investigator's Brochure. The following applies: BCRP or MRP2, ref Investigator's Brochure; cited from earlier work.
For data set [3] the following is noted: ref Investigator's Brochure, cited from earlier work.
The next data set relates to U-2932 (ABC DLBCL). The arrangement: method as in Report CC-90010-Pharm-1018. The following applies: read-out: absolute IC50, proliferation, cited from earlier work.
The next data set relates to COH70 TNBC PDX. The arrangement: method as in Unpublished data from Celgene Corporation. The following applies: Day 38, ref Unpublished data from Celgene Corporation, cited from earlier work.

In the case of `Cn1cc(-c2cc(S(C)(=O)=O)ccc2OCC2CC2)c2ccccc2c1=O` [trotabresib], the IC50 in data set [1] was 240 nM; with CYP2C8, no less than 13900 nM; in the data set with U-2932 (ABC DLBCL) (U-2932, Experiment 1, ref Report CC-90010-Pharm-1018), 150 nM; with U-2932 (ABC DLBCL) (U-2932, Table 2, ref Report CC-90010-Pharm-1018), 167 nM. The time-dependent inhibition entry in data set [2] is on record as “little to no time-dependent”. Besides, the transporter inhibition result with BCRP or MRP2 is recorded as “not an inhibitor”. The severely toxic dose in data set [3] (4-week Beagle dog study) was 7.50 mg base/kg/dose. Also, the “cardiovascular and respiratory effects” value in data set [3] (conscious Beagle dogs) is “no CC-90010-related effects on electrocardiograms, heart rate”. Further, in data set [3] (dog, 3-days-on/4-days-off schedule), the “highest non-severely toxic dose (HNSTD)” value is 3.75 mg base/kg/dose. Besides, the “mean exposure corresponding to the dog HNSTD” value in data set [3] was 10000 ng·h/mL. Further, the “mean percent TGI” value is 64% with COH70 TNBC PDX (COH70, 12.5 mg/kg/dose PO QD 3 days on/4 days off); 68% in the data set with COH70 TNBC PDX (COH70, 16 mg/kg/dose PO QD 3 days on/4 days off); 72% with COH70 TNBC PDX (COH70, 20 mg/kg/dose PO QD 3 days on/4 days off).
